Results published in US9931367B2, “Uses of cistanche tubulosa extract and isoacteoside in protecting muscle” (SINPHAR TIAN-LI PHARMACEUTICAL CO., LTD. (HANGZHOU), priority 2016, dated 2018).

Key:
[1] = tested on: C2C12 cells with TNF-α induced injury; assay: Protection of C2C12 cells against TNF-α induced injury (survival rate, MMP, intracellular ROS); type: cell-based, mice; conditions: pre-treated 6 h, then 10 ng/mL TNF-α 4 days
Method: C2C12 cells were cultured in H-DMEM medium until 80% confluence was attained. Thereafter, the cells were separated into eleven groups, wherein seven groups thereof were provided with the Cistanche tubulosa extract (CIS) solution (dissolved in DMSO) to provide final concentrations of 0, 1, 5, 10, 50, 100, 500 μg/mL, respectively, and then pre-treatment was carried out for 6 hours; the other three groups were provided with branched chain amino acids (BCAA; served as a positive control) to provide final concentrations of 0.1, 1 or 10 μg/mL respectively, and then pre-treatment was carried out for 6 hours; thereafter, the mediums of the above ten groups (seven groups provided with CIS and three groups provided with BCAA) were replaced by differentiation mediums supplemented with 2% horse serum, and TNA-α was then added into those mediums to provide a final concentration of 10 ng/mL, and then co-treated with differentiation medium for 4 days; the last group served as a control group, which was not treated with the Cistanche tubulosa extract, BCAA, or TNA-α. Finally, the survival rates, MMPs and intracellular ROSs of the C2C12 cells in each group were measured. The control group served as a basis for calculating the relative survival rates, MMPs, and intracellular ROSs of the other groups to determine the effective concentration of Cistanche tubulosa extract for providing a protective effect against the TNF-α induced muscle cell injury. The results are shown in FIG. 3 and FIG. 4 (all the data are presented as average values±SEM, n=6, analyzed with a t-test, *p<0.05, **p<0.01, ***p<0.001).
According to the results of Example 1, echinacoside (Ech), verbascoside (VB) and isoacteoside (Iso) are the main ingredients of the Cistanche tubulosa extract. To investigate whether the echinacoside, verbascoside and isoacteoside have the effect of protecting muscles, the echinacoside, verbascoside and isoacteoside (all purchased from ChromaDex company, U.S.) were dissolved in DMSO to provide a echinacoside solution, a verbascoside solution and a isoacteoside solution. C2C12 cells were cultured in H-DMEM medium until 80% confluence was attained. Thereafter, the cells were separated into eighteen groups and treated as follows: • (1) Control group: cells were cultured in H-DMEM medium for 6 hours; thereafter the medium was replaced by a differentiation medium supplemented with 2% horse serum, and the cells were cultured for 4 days. • (2) TNF-α group: cells were cultured in H-DMEM medium for 6 hours; thereafter the medium was replaced by a differentiation medium supplemented with 2% horse serum, and TNF-α was then added into the medium (the final concentration was 10 ng/mL) to carry out a co-treatment for 4 days. • (3) TNF-α+echinacoside group (6 groups): the echinacoside solution was added into H-DMEM mediums to provide final concentrations of 1, 5, 10, 50, 100, or 500 μg/mL, respectively. The cells were pre-treated with the above mediums for 6 hours. Thereafter, the mediums were replaced by differentiation mediums supplemented with 2% horse serum, and TNF-α was then added into the mediums (the final concentration was 10 ng/mL) to carry out co-treatments for 4 days. • (4) TNF-α+verbascoside group (5 groups): the verbascoside solution was added into H-DMEM mediums to provide final concentration of 1, 5, 10, 50, or 100 μg/mL, respectively. The cells were pre-treated with the above mediums for 6 hours. Thereafter, the mediums were replaced by differentiation mediums supplemented with 2% horse serum, and TNF-α was then added into the mediums (the final concentration was 10 ng/mL) to carry out co-treatments for 4 days. • (5) TNF-α+isoacteoside group (5 groups): the isoacteoside solution was added into H-DMEM mediums to provide final concentrations of 1, 5, 10, 50, or 100 μg/mL, respectively. The cells were pre-treated with the above mediums for 6 hours. […]

[2] = tested on: C2C12 cells; assay: Establishment of TNF-α induced muscle cell injury model (MMP, intracellular ROS); type: cell-based, mice; conditions: 4 days, relative to 0 ng/mL group
Method: Firstly, C2C12 cells (i.e., muscle cells of mice, purchased from ATCC) were cultured in H-DMEM medium (purchased from Sigma company) until 80% confluence was attained (i.e., the mixed cell monolayer comprises 80% of area). Thereafter, the cells were separated into four groups, and the mediums of all the groups were replaced by differentiation mediums supplemented with 2% horse serum. TNF-α (purchased from Sigma company) was then added into those mediums to provide final concentrations of 0, 2, 5, 10 ng/mL respectively. After being co-treated with the differentiation medium and TNF-α for 4 days, the mitochondrial membrane potential (MMP) and intracellular reactive oxidative stress (ROS) of the C2C12 cells were measured to serve as the index for model evaluation. Accordingly, a TNF-α induced muscle cell injury model was established. Finally, the group that was not treated with TNF-α (i.e., the concentration of TNF-α was 0 ng/mL) served as a basis for calculating the relative MMPs and intracellular ROSs of the other groups. The results are shown in FIG. 1 (all the data are presented as average values±SEM, n=6, analyzed with a t-test, *p<0.05, ***p<0.001).

Molecule: C[C@@H]1O[C@@H](O[C@@H]2[C@@H](O)[C@H](OCCc3ccc(O)c(O)c3)O[C@H](COC(=O)/C=C/c3ccc(O)c(O)c3)[C@H]2O)[C@H](O)[C@H](O)[C@H]1O [isoacteoside]
- decrease in the MMP induced by TNF-α ([1]; 100 μg/mL): significantly ameliorated
- survival rate ([1]; 5 to 100 μg/mL): increased
- intracellular ROS ([1]; 10 to 100 μg/mL): significantly decreased

Molecule: C[C@@H]1O[C@@H](O[C@@H]2[C@@H](O)[C@H](OCCc3ccc(O)c(O)c3)O[C@H](CO)[C@H]2OC(=O)/C=C/c2ccc(O)c(O)c2)[C@H](O)[C@H](O)[C@H]1O [verbascoside]
- protection of C2C12 cells against TNF-α induced injury (survival rate, MMP, ROS) ([1]; 1 to 100 μg/mL): could not protect

Molecule: TNF-α
- intracellular reactive oxidative stress (ROS) ([2]; 5 ng/mL TNF-α): slightly increased
- mitochondrial membrane potential (MMP) ([2]; 5 ng/mL TNF-α): significantly decreased
- intracellular reactive oxidative stress (ROS) ([2]; 10 ng/mL TNF-α): significantly increased
- mitochondrial membrane potential (MMP) ([2]; 10 ng/mL TNF-α): significantly decreased

Molecule: echinacoside
- concentration at which the protective effect (survival rate) became significant ([1]; 5 to 500 μg/mL tested): 100 µg/mL
- protective effect on MMP ([1]; 5 to 500 μg/mL): did not exhibit protective effect
- protective effect on ROS ([1]; 5 to 500 μg/mL): did not exhibit protective effect
- protective effect (survival rate) ([1]; lower concentration within 5 to 500 μg/mL): not significant
